Test [1] has as its system insulin treated obese NIDDM patients. The test can be described thus: Example 1: standard test meal study, meal-related C-peptide response, glucagon response and IMIR. Format: in vivo, human. The settings on record: GLP-1(7-36)amide 0.75 pmol/kg/min infusion for 210 min, glibenclamide 1 mg i.v., 6 insulin treated obese NIDDM patients.
In test [2] the test system is patients with NIDDM and secondary failure to sulfonylurea treatment. As to the kind of experiment: Example 2: basal state and standard lunch study in patients with secondary failure to sulfonylurea treatment. Format: in vivo, human. The settings on record: for Insulinogenic index (integrated insulin/integrated glucose response): after ingestion of the meal; for Insulinogenic index (integrated insulin/integrated glucose response) / Blood glucose: GLP-1(7-36)amide 0.75 pmol/kg/min, glibenclamide 1 mg i.v., 8 NIDDM patients with sulfonylurea failure.

For the next test, the system named is healthy volunteers. Conditions: peptide infused into healthy volunteers; cited from earlier work.
The subject of test [3] is isolated precultured rat pancreatic islets. Conditions: in the presence of glucose, dose-dependent; cited from earlier work.
The test system of test [4] is diabetic as well as nondiabetic subjects. Conditions: cited from earlier work.
Where [5] appears, read: basal state, 45 minutes after start of administration.

Ends that are not written are not given here.

In the case of `COc1ccc(Cl)cc1C(=O)NCCc1ccc(S(=O)(=O)NC(=O)NC2CCCCC2)cc1` [glibenclamide], in test [1], the Glucagon response entry is “no significant effect”. Besides, in test [2], the “Insulinogenic index (integrated insulin/integrated glucose response)” value is 10.6 ± 2.8,. Moreover, in test [2] (setting [5]), the “effect on blood glucose and C-peptide levels (in words)” value is recorded as “no significant effect on its own”; the Blood glucose is 6.0 ± 0.3 mmol/L.

With “GLP-1(7-36)amide: Peptide of formula I, His-Ala-Glu-Gly-Thr-...-Lys-Gly-Arg-X with X = NH2; fragment of glucagon-like peptide-1”, the “Insulinogenic index (integrated insulin/integrated glucose response)” value in test [2] is 21.0 ± 7.2,. Also, in test [2] (setting [5]), the Blood glucose was determined as 5.1 ± 0.4 mmol/L. For the same compound, in the test with healthy volunteers, the plasma insulin entry was “significant rise in plasma insulin”.

On to “GLP-1(1-36)amide: amide of a fragment of GLP-1 comprising amino acid residues 1 to 36 (HDEFERHAEGTFTSDVSSYLEGQAAKEFIAWLVKGR-NH2; UniProt P01275 92-127, looked up, fragment)”, for which the insulin release result in test [3] is “stimulates insulin release”.

In the case of “GLP-1(7-37): Peptide of formula I with X = Gly-OH; residues 7 to 37 of GLP-1 (HAEGTFTSDVSSYLEGQAAKEFIAWLVKGRG-OH; UniProt P01275 98-128, looked up, fragment)”, the insulinotropic action result in test [4] is “has been demonstrated”.

The values above are taken from patent US20070225212A1, “Use of a peptide” (priority 1992, published 2007).
